According to US20240368181A1, “QUINOXALINE DERIVATIVES AND USES THEREOF” (Black Diamond Therapeutics, Inc., priority 2021, published 2024):

What was measured:
Assay type in all cases: cell-based
[1] = tested on: DMS-114 (FGFR1 overexpression) cells; assay: cell proliferation assay (CellTiterGlo), DMS-114 cells; conditions: Homo sapiens
Method in brief: (§1)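 Suspended cells plated; DMSO or compound dose range added; intracellular ATP read by CellTiterGlo luminescence; IC50 vs vehicle-normalized viability.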

[2] = tested on: RT-112 (FGFR3-Tacc3 fusion) cells; assay: cell proliferation assay (CellTiterGlo), RT-112 cells; conditions: Homo sapiens, RT-112, RT112 cells, 72 hours
Method in brief: as §1

[3] = tested on: UM-UC-14 (FGFR3-S249C) cells; assay: cell proliferation assay (CellTiterGlo), UM-UC-14 cells
Method in brief: as §1

[4] = tested on: SNU-16 (FGFR2-amplification) cells; assay: cell proliferation assay (CellTiterGlo), SNU-16 cells; conditions: Homo sapiens, 72 hours
Method in brief: as §1

Row | SMILES | IC50 [4] [nM] | IC50 ([1]; DMS-114, 72 h) [nM] | IC50 [2] [nM] | IC50 ([3]; UMUC14, 72 h) [nM] | IC50 ([1]; 72 hours) [nM] | IC50 ([3]; UMUC14, 72 hours) [nM]
1 | Cc1nc2ccc(Oc3c(C)cc4ncc(-c5cnn(CC6CCN(C)CC6)c5)nc4c3Cl)cc2[nH]1 [Compound 334] | ≥ 400 | ≥ 400 | ≥ 400 | ≥ 400 |  | 
2 | Clc1c(Oc2ccn3cncc3c2)ccc2ncc(-c3cnn(CC4CCNCC4)c3)nc12 [Compound 341] | ≥ 400 | ≥ 400 | ≥ 400 | ≥ 400 |  | 
3 | Cc1nc2ccc(Oc3ccc4ncc(-c5cnn(CC6CN6)c5)nc4c3Cl)cc2[nH]1 (centres unmarked) [Compound 344] | 100 to 400 |  | 100 to 400 |  | ≥ 400 | 100 to 400
4 | Cc1cc2cc(Oc3ccc4ncc(-c5cnn(CC6CCN(C)CC6)c5)nc4c3Cl)ccn2n1 [Compound 345] | ≥ 400 | ≥ 400 | ≥ 400 | ≥ 400 |  | 
5 | Cc1nc2ccc(Oc3ccc4ncc(-c5cnn(CC(=O)NCCO)c5)nc4c3Cl)cc2[nH]1 [Compound 348] | ≥ 400 | ≥ 400 | 100 to 400 | ≥ 400 |  | 
6 | Cc1nc2cc(Oc3ccc4ncc(-c5cnn(CC6(O)CCNCC6)c5)nc4c3Cl)ccc2[nH]1 [Compound 349] | ≥ 400 | ≥ 400 | ≥ 400 | ≥ 400 |  | 
7 | Cc1nc2ccc(Oc3ccc4ncc(-c5cnn(CCNCCO)c5)nc4c3Cl)cc2[nH]1 [Compound 350] | 100 to 400 | ≥ 400 | 20 to 100 | 100 to 400 |  | 
8 | Cc1nc2ccc(Oc3ccc4ncc(-c5cnn(CC6(C)COC6)c5)nc4c3Cl)cc2[nH]1 [Compound 352] | ≥ 400 | ≥ 400 | ≥ 400 | ≥ 400 |  | 
9 | Cc1nc2ccc(Oc3ccc4ncc(-c5cnn(C6CC7CC6CN7)c5)nc4c3Cl)cc2[nH]1 (centres unmarked) [Compound 353] | 20 to 100 | ≥ 400 | 20 to 100 | 20 to 100 |  | 
10 | Cc1nc2ccc(Oc3ccc4ncc(-c5cnn(CC6CCN(C(N)=O)CC6)c5)nc4c3Cl)cc2[nH]1 [Compound 354] | 20 to 100 | 100 to 400 | < 20 | 20 to 100 |  | 
11 | Cc1nc2ccc(Oc3ccc4ncc(-c5cnn([C@H]6CC[C@H](N7CCC7)CC6)c5)nc4c3Cl)cc2[nH]1 [Compound 355] | 20 to 100 | 100 to 400 | 20 to 100 | 20 to 100 |  | 
12 | Cc1nc2ccc(Oc3ccc4ncc(-c5cnn([C@H]6CC[C@@H](N7CCC7)CC6)c5)nc4c3Cl)cc2[nH]1 [Compound 356] | 20 to 100 | 100 to 400 | 20 to 100 | 20 to 100 |  | 
13 | Cc1nc2ccc(Oc3ccc4ncc(-c5cnn(CC6(C)CCOC6)c5)nc4c3Cl)cc2[nH]1 (centres unmarked) [Compound 357] | 20 to 100 | ≥ 400 | 20 to 100 | 20 to 100 |  | 
14 | Cc1nc2ccc(Oc3ccc4ncc(-c5cnn(C6CCC(F)(F)CC6)c5)nc4c3Cl)cc2[nH]1 [Compound 358] | 20 to 100 | ≥ 400 | 100 to 400 | 100 to 400 |  | 
15 | Cc1nc2ccc(Oc3ccc4ncc(-c5cnn(C(C)(C)CO)c5)nc4c3Cl)cc2[nH]1 [Compound 359] | 20 to 100 | ≥ 400 | 20 to 100 | 20 to 100 |  | 
16 | Cc1nc2ccc(Oc3ccc4ncc(-c5cnn([C@H]6CCN(C7COC7)C[C@@H]6F)c5)nc4c3Cl)cc2[nH]1 [Compound 360] | 20 to 100 | ≥ 400 | 20 to 100 | 20 to 100 |  | 
17 | Cc1nc2ccc(Oc3ccc4ncc(-c5cnn([C@@H]6C[C@H]7CC[C@@H](C6)N7)c5)nc4c3Cl)cc2[nH]1 [Compound 361] | 100 to 400 | 100 to 400 | 20 to 100 | 20 to 100 |  | 
18 | Cc1nc2ccc(Oc3ccc4ncc(-c5cnn([C@H]6C[C@H]7CC[C@@H](C6)N7)c5)nc4c3Cl)cc2[nH]1 [Compound 362] | 20 to 100 | 100 to 400 | 20 to 100 | 20 to 100 |  | 
19 | Cc1nc2ccc(Oc3ccc4ncc(-c5cnn([C@@H]6C[C@H]7CC[C@@H](C6)N7C)c5)nc4c3Cl)cc2[nH]1 [Compound 363] | 20 to 100 | ≥ 400 | 20 to 100 | 20 to 100 |  | 
20 | Cc1nc2ccc(Oc3ccc4ncc(-c5cnn([C@H]6C[C@H]7CC[C@@H](C6)N7C)c5)nc4c3Cl)cc2[nH]1 [Compound 364] | 20 to 100 | 100 to 400 | < 20 | < 20 |  | 
21 | Cc1nc2ccc(Oc3ccc4ncc(-c5cnn(CC6C7COCC76)c5)nc4c3Cl)cc2[nH]1 (centres unmarked) [Compound 365] | 20 to 100 | ≥ 400 | 20 to 100 | 20 to 100 |  | 
22 | Cc1nc2ccc(Oc3ccc4ncc(-c5cnn(CC6CCC(S(C)(=O)=O)CC6)c5)nc4c3Cl)cc2[nH]1 (centres unmarked) [Compound 366] | 20 to 100 | ≥ 400 | 20 to 100 | 20 to 100 |  | 
23 | Cc1nc2ccc(Oc3ccc4ncc(-c5cnn(C[C@@H]6CCN(C)C[C@H]6F)c5)nc4c3Cl)cc2[nH]1 [Compound 367] | 20 to 100 | 100 to 400 | < 20 | 20 to 100 |  | 
24 | Cc1nc2ccc(Oc3ccc4ncc(-c5cnn(C[C@H]6CCN(C)C[C@H]6F)c5)nc4c3Cl)cc2[nH]1 [Compound 368] | 20 to 100 | 100 to 400 | 20 to 100 | 20 to 100 |  | 
25 | Cc1nc2ccc(Oc3ccc4ncc(-c5cnn([C@H]6CCNC[C@@H]6F)c5)nc4c3Cl)cc2[nH]1 [Compound 369] | 20 to 100 | ≥ 400 | 20 to 100 | 20 to 100 |  | 
26 | CSC1CCC(Cn2cc(-c3cnc4ccc(Oc5ccc6nc(C)[nH]c6c5)c(Cl)c4n3)cn2)CC1 (centres unmarked) [Compound 371] | 20 to 100 | ≥ 400 | 20 to 100 | 100 to 400 |  | 
27 | CCS(=O)(=O)N1CC(n2cc(-c3cnc4ccc(Oc5ccc6nc(C)[nH]c6c5)c(Cl)c4n3)cn2)C1 [Compound 372] | 20 to 100 | ≥ 400 | 20 to 100 | 20 to 100 |  | 
28 | CC(=O)N1CCCC(n2cc(-c3cnc4ccc(Oc5ccc6nc(C)[nH]c6c5)c(Cl)c4n3)cn2)C1 (centres unmarked) [Compound 373] | 20 to 100 | ≥ 400 | 20 to 100 | 20 to 100 |  | 

Now from value to compound, other results behind:

Row | IC50 [4] [nM] | SMILES | IC50 ([1]; DMS-114, 72 h) [nM] | IC50 [2] [nM] | IC50 ([3]; UMUC14, 72 h) [nM] | IC50 ([1]; 72 hours) [nM] | IC50 ([3]; UMUC14, 72 hours) [nM]
29 | < 20 | Cc1nc2ccc(Oc3ccc4ncc(-c5cnn(C6CCN(CC(N)=O)CC6)c5)nc4c3Cl)cc2[nH]1 [Compound 330] | ≥ 400 | < 20 | 20 to 100 |  | 
30 | < 20 | Cc1nc2ccc(Oc3ccc4ncc(-c5cnn(C6CC7CC6CN7C6COC6)c5)nc4c3Cl)cc2[nH]1 (centres unmarked) [Compound 331] | ≥ 400 | < 20 | 20 to 100 |  | 
31 | 20 to 100 | Cc1nc2cc(Oc3ccc4ncc(-c5cnn(CC(=O)N6CCC(F)(F)CC6)c5)nc4c3Cl)ccc2[nH]1 [Compound 332] | ≥ 400 | 20 to 100 | 20 to 100 |  | 
32 | 20 to 100 | Cc1nc2ccc(Oc3ccc4ncc(-c5cnn(C6CCN(C(C)C)CC6)c5)nc4c3Cl)cc2[nH]1 [Compound 333] | ≥ 400 | 20 to 100 | 20 to 100 |  | 
33 | 20 to 100 | CO[C@H]1CC[C@H](Cn2cc(-c3cnc4ccc(Oc5ccc6nc(C)[nH]c6c5)c(Cl)c4n3)cn2)CC1 [Compound 335] | ≥ 400 | 20 to 100 | 20 to 100 |  | 
34 | 20 to 100 | CO[C@H]1CC[C@@H](Cn2cc(-c3cnc4ccc(Oc5ccc6nc(C)[nH]c6c5)c(Cl)c4n3)cn2)CC1 [Compound 336] | ≥ 400 | 20 to 100 | 20 to 100 |  | 
35 | 20 to 100 | Cc1nc2ccc(Oc3ccc4ncc(-c5cnn(C[C@]67C[C@H](CO6)C7)c5)nc4c3Cl)cc2[nH]1 [Compound 337] | ≥ 400 | 20 to 100 | 20 to 100 |  | 
36 | 20 to 100 | Cc1nc2ccc(Oc3ccc4ncc(-c5cnn(CC6CCC(N(C)C)CC6)c5)nc4c3Cl)cc2[nH]1 (centres unmarked) [Compound 338] | 100 to 400 | 20 to 100 | 20 to 100 |  | 
37 | < 20 | Cc1nc2ccc(Oc3ccc4ncc(-c5cnn(CC6CCC(O)CC6)c5)nc4c3Cl)cc2[nH]1 (centres unmarked) [Compound 339] | 100 to 400 | < 20 | < 20 |  | 
38 | < 20 | Cc1nc2ccc(Oc3ccc4ncc(-c5cnn(C6CCN(C7COC7)CC6)c5)nc4c3Cl)cc2[nH]1 [Compound 340] | 100 to 400 | < 20 | 20 to 100 |  | 
39 | 20 to 100 | Cc1nc2ccc(Oc3ccc4ncc(-c5cnn(C6CC7CC6CN7C(C)C)c5)nc4c3Cl)cc2[nH]1 (centres unmarked) [Compound 342] | ≥ 400 | 20 to 100 | 20 to 100 |  | 
40 | < 20 | Cc1nc2ccc(Oc3ccc4ncc(-c5cnn(CC67COC(C6)C7)c5)nc4c3Cl)cc2[nH]1 [Compound 343] | ≥ 400 | < 20 | 20 to 100 |  | 
41 | 20 to 100 | Cc1nc2ccc(Oc3ccc4ncc(-c5cnn(C6CC7(C6)OCCO7)c5)nc4c3Cl)cc2[nH]1 [Compound 346] | ≥ 400 | 20 to 100 | 20 to 100 |  | 
42 | 20 to 100 | C=CCn1cc(-c2cnc3ccc(Oc4ccc5nc(C)[nH]c5c4)c(Cl)c3n2)cn1 [Compound 347] | ≥ 400 | 20 to 100 | 100 to 400 |  | 
43 | 20 to 100 | Cc1nc2ccc(Oc3ccc4ncc(-c5cnn(C6CC7CC6CN7C)c5)nc4c3Cl)cc2[nH]1 (centres unmarked) [Compound 351] | 100 to 400 | 20 to 100 | 20 to 100 |  | 
44 | < 20 | Cc1nc2ccc(Oc3ccc4ncc(-c5cnn(C6CCN(C)CC6)c5)nc4c3Cl)cc2[nH]1 [Compound 370] | 100 to 400 | 20 to 100 | 20 to 100 |  | 
